Data reported in US9204653B2, “5-fluoro pyrimidine derivatives” (DOW AGROSCIENCES LLC, priority 2008, dated 2015).
Like-named read-outs stand apart in the source and are kept apart here.

Tested on: Mycosphaerella graminicola; Anamorph: Septoria tritici; Bayer Code SEPTTR
Assay: Leaf blotch of wheat, foliar fungicide treatment, one day protectant (1DP) or three day curative (3DC)
Format: in vivo, Septoria tritici on wheat plants (variety Yuma)
Settings: Zymoseptoria tritici, rating of percent disease control
[1] = 24 h, one day protectant (1DP), read-out: SETTTR 1DP 25 ppm
[2] = 24 h, one day protectant (1DP), read-out: SEPTTR 1DP 100 ppm
[3] = 72 h, three day curative (3DC), read-out: SEPTTR 3DC 25 ppm
[4] = 72 h, three day curative (3DC), read-out: SEPTTR 3DC 100 ppm

SMILES	pest or weed control at 25 ppm [1]	pest or weed control at 100 ppm [2]	pest or weed control at 25 ppm [3]	pest or weed control at 100 ppm [4]
Fc1ccc(COc2ncc(F)c(NNC3CCCCC3)n2)cc1 [Compound 492]	0 to 25%	26 to 50%	0 to 25%	26 to 50%
Fc1cnc(OCc2ccccc2)nc1NNC1CCCCC1 [Compound 493]	0 to 25%	26 to 50%	0 to 25%	0 to 25%
CN(C)/C=N/c1nc(OCc2cccc(F)c2)ncc1F [Compound 494]	76 to 100%	76 to 100%	76 to 100%	76 to 100%
Cc1ccc(COc2ncc(F)c(NC(=O)Cc3ccccc3)n2)cc1 [Compound 497]	51 to 75%	76 to 100%	0 to 25%	26 to 50%
CCOCNc1nc(OCc2cccc(F)c2)ncc1F [Compound 498]	76 to 100%	76 to 100%	76 to 100%	76 to 100%
Cc1c(F)c(F)c(COc2ncc(F)c(N)n2)c(F)c1F [Compound 500]	76 to 100%	76 to 100%	76 to 100%	76 to 100%
O=C(Nc1nc(OCc2ccc(F)cc2)ncc1F)C(F)F [Compound 501]	76 to 100%	76 to 100%	76 to 100%	76 to 100%
CC(Oc1ncc(F)c(N)n1)c1cc(Cl)c(Cl)cc1Cl (stereo not shown) [Compound 502]	0 to 25%	0 to 25%	0 to 25%	0 to 25%
CC[Si](CC)(CC)Nc1nc(OCc2cccs2)ncc1F [Compound 503]	76 to 100%	76 to 100%	76 to 100%	76 to 100%
N#Cc1cccc(COc2ncc(F)c(NC(=S)NCc3ccccc3F)n2)c1 [Compound 504]	0 to 25%	51 to 75%	0 to 25%	0 to 25%
Fc1cnc(OCc2cccs2)nc1NCOCc1ccccc1 [Compound 506]	26 to 50%	76 to 100%	0 to 25%	0 to 25%
CC[Si](CC)(CC)Nc1nc(OCCc2ccc(Cl)cc2)ncc1F [Compound 507]	51 to 75%	76 to 100%	0 to 25%	76 to 100%
Nc1nc(OCc2ccsc2)ncc1F [Compound 508]	76 to 100%	76 to 100%	76 to 100%	76 to 100%
Nc1nc(OCC2CC2(F)F)ncc1F (stereo not shown) [Compound 509]	0 to 25%	0 to 25%	26 to 50%	0 to 25%
Cn1ccc2cc(COc3ncc(F)c(N)n3)ccc21 [Compound 511]	51 to 75%	51 to 75%	26 to 50%	26 to 50%
CCC(Oc1ncc(F)c(N)n1)c1ccc(F)cc1 (stereo not shown) [Compound 513]	76 to 100%	76 to 100%	76 to 100%	76 to 100%
Fc1ccc(COc2ncc(F)c(NNc3ccccc3Cl)n2)cc1 [Compound 515]	0 to 25%	76 to 100%	0 to 25%	0 to 25%
CCOCNc1nc(OCc2cccc(C#N)c2)ncc1F [Compound 516]	76 to 100%	76 to 100%	76 to 100%	76 to 100%
COC(=O)Oc1ncc(F)c(/N=C/N(C)C)n1 [Compound 517]	76 to 100%	76 to 100%	76 to 100%	76 to 100%
